Patent publication US20140107316A1, “DRUG DELIVERY CONJUGATES CONTAINING UNNATURAL AMINO ACIDS AND METHODS FOR USING” (priority 2012, published 2014)

What was measured:
[1] = test system: collagen-induced arthritis; test: Collagen-Induced Arthritis (CIA) Model; assay type: in vivo, female Lewis rats; conditions: ten consecutive subcutaneous doses days 10-19; 500 nmol/kg induction, 100 nmol/kg maintenance
Description: Collagen-Induced Arthritis (CIA) Model. The collagen-induced arthritis (CIA) was induced in female Lewis rats on folate-deficient diet (Harlan Teklad, Indianapolis, Ind.). On Day 0, rats were immunized with 500 μg of bovine collagen Type II (Chondrex, Redmond, Wash.) formulated with Freund's complete adjuvant. A booster immunization was given on Day 7 with 250 μg of the bovine collagen formulated with Freund's incomplete adjuvant. Arthritis disease was assessed by a qualitative clinical score system described by the manufacturer (Chondrex, Redmond, Wash.): 0=normal, 1=Mild, but definite redness and swelling of the ankle or wrist, or apparent redness and swelling limited to individual digits, regardless of the number of affected digits, 2=Moderate redness and swelling of ankle of wrist, 3=Severe redness and swelling of the entire paw including digits, and 4=Maximally inflamed limb with involvement of multiple joints. On Day 10 post first immunization, rats were distributed evenly (according to the arthritis score) across the control and treatment groups. The CIA rats were given ten consecutive subcutaneous doses of EC0746 and methotrexate on days 10-19. For both drugs, an induction dose (500 nmol/kg) was given on days 10 and 15 and a maintenance dose (100 nmol/kg) was given on days 11-14 and 16-19. […] The arthritis score and animal body weight were recorded five times a week.

[2] = Plasma stability / drug release after dosing in rats; assay type: in vivo; conditions: after a AC dose in rats
Description: EC1496 releases ca. 50% less drug than the comparative example EC0746 after a AC dose in rats.

KB tumors = test: KB tumor assay in nu/nu mice; conditions: for CR (%) / Cures (%) / PR (%) / Toxicity Avg. Weight Loss / Toxicity Deaths (%): TIW, 2 weeks
Description: Inhibition of Tumor Growth in Mice. Four to seven week-old mice (Balb/c or nu/nu strains) were purchased from Harlan Sprague Dawley, Inc. (Indianapolis, Ind.). Normal rodent chow contains a high concentration of folic acid (6 mg/kg chow); accordingly, mice used were maintained on the folate-free diet (Harlan diet #TD00434) for 1 week before tumor implantation to achieve serum folate concentrations close to the range of normal human serum. For tumor cell inoculation, 1×10^6 M109 cells (Balb/c strain) or 1×10^6 KB cells (nu/nu strain) in 100 μL were injected in the subcutis of the dorsal medial area. Tumors were measured in two perpendicular directions every 2-3 days using a caliper, and their volumes were calculated as 0.5×L×W^2, where L=measurement of longest axis in mm and W=measurement of axis perpendicular to L in mm. […] Dosing solutions were prepared fresh each day in PBS and administered through the lateral tail vein of the mice.
General KB Tumor Assay. The anti-tumor activity of the compounds described herein, when administered intravenously (i.v.) to tumor-bearing animals, was evaluated in nu/nu mice bearing subcutaneous KB tumors. Approximately 8 days post tumor inoculation in the subcutis of the right axilla with 1×10^6 KB cells (average tumor volume at to=50-100 mm^3), in mice (5/group) were injected i.v. three times a week (TIW), for 3 weeks with […] of the drug delivery conjugate or with an equivalent dose volume of PBS (control), unless otherwise indicated. Tumor growth was measured using calipers at 2-day or 3-day intervals in each treatment group. Tumor volumes were calculated using the equation V=a×b^2/2, where “a” is the length of the tumor and “b” is the width expressed in millimeters.
Toxicity as Measured by Weight Loss. The percentage weight change of the mice was determined in mice (5 mice/group) on selected days post-tumor inoculation (PTI), and graphed.
In vivo activity against tumors.

cells in culture = test: Cytotoxicity to cells in culture; assay type: cell-based; conditions: read-out: typical IC50, cells in culture

CCCC(=O)OCN(C(=O)[C@@H](NC(=O)[C@H]1CCCCN1C)C(C)CC)[C@H](C[C@H](OC(C)=O)c1nc(C(=O)N[C@H](Cc2ccc(O)cc2)C[C@H](C)C(=O)NNC(=O)OCCSSC[C@H](NC(=O)[C@H](CCC(=O)NC[C@H](O)[C@@H](O)[C@H](O)[C@H](O)CO)NC(=O)[C@H](CCC(=O)O)NC(=O)[C@H](CCC(=O)NC[C@H](O)[C@@H](O)[C@H](O)[C@H](O)CO)NC(=O)[C@H](CCC(=O)O)NC(=O)[C@H](CCC(=O)NC[C@H](O)[C@@H](O)[C@H](O)[C@H](O)CO)NC(=O)CC[C@H](NC(=O)c2ccc(NCc3cnc4nc(N)[nH]c(=O)c4n3)cc2)C(=O)O)C(=O)O)cs1)C(C)C (stereo partly shown) [EC0746]
effect on collagen-induced arthritis (arthritis score) [1]: effective

N=c1[nH]c(N)nc2ncc(CNc3ccc(C(=O)N[C@@H](CCC(=O)NNC(=O)OCCSSC[C@@H](NC(=O)[C@H](CCC(=O)NC[C@H](O)[C@@H](O)[C@H](O)[C@H](O)CO)NC(=O)[C@@H](CCC(=O)O)NC(=O)[C@H](CCC(=O)NC[C@H](O)[C@@H](O)[C@H](O)[C@H](O)CO)NC(=O)[C@@H](CCC(=O)O)NC(=O)[C@H](CCC(=O)NC[C@H](O)[C@@H](O)[C@H](O)[C@H](O)CO)NC(=O)CC[C@@H](NC(=O)c4ccc(NCc5cnc6nc(N)[nH]c(=O)c6n5)cc4)C(=O)O)C(=O)O)C(=O)O)cc3)nc12 [EC1496]
less drug released than comparative example EC0746 [2]: ca. 50%

CCCC(=O)OCN(C(=O)[C@@H](NC(=O)[C@H]1CCCCN1C)[C@@H](C)CC)[C@H](C[C@@H](OC(C)=O)c1nc(C(=O)N[C@@H](Cc2ccc(O)cc2)C[C@H](C)C(=O)O)cs1)C(C)C [Tubulysin B, tubulysin B]
CR (%) (KB tumors; 0.1 μmol/kg (4 doses)): 0%
Cures (%) (KB tumors; 0.1 μmol/kg (4 doses)): 0%
PR (%) (KB tumors; 0.1 μmol/kg (4 doses)): 0%
Toxicity Avg. Weight Loss (KB tumors; 0.1 μmol/kg (4 doses)): >20%
Toxicity Deaths (%) (KB tumors; 0.1 μmol/kg (4 doses)): 100%
CR (%) (KB tumors; 0.2 μmol/kg (3 doses)): 0%
Cures (%) (KB tumors; 0.2 μmol/kg (3 doses)): 0%
PR (%) (KB tumors; 0.2 μmol/kg (3 doses)): 0%
Toxicity Avg. Weight Loss (KB tumors; 0.2 μmol/kg (3 doses)): >18%
Toxicity Deaths (%) (KB tumors; 0.2 μmol/kg (3 doses)): 100%
CR (%) (KB tumors; 0.5 μmol/kg (1 dose)): 0%
Cures (%) (KB tumors; 0.5 μmol/kg (1 dose)): 0%
PR (%) (KB tumors; 0.5 μmol/kg (1 dose)): 0%
Toxicity Avg. Weight Loss (KB tumors; 0.5 μmol/kg (1 dose)): >15%
Toxicity Deaths (%) (KB tumors; 0.5 μmol/kg (1 dose)): 100%
toxicity in relation to anti-tumor effect in mice (KB tumors; mouse, in vivo): dose-limiting toxicities in mice at levels that did not produce measurable anti-tumor effect
IC50 (cells in culture): ~1 nM
